Results reported in patent publication US8895004B2 (priority 2007, dated 2014).
“Also recorded” adds a separate entry of the source.

Assays:
N-type currents = N-type currents (Rattus norvegicus, UniProt Q02294); assay type: cell-based
[1] = system: cultured hippocampal neurons treated with ω-conotoxin (P/Q-dominated cells); assay type: cell-based, rat

| Compound | N-type calcium current amplitude (N-type currents) | amplitude of synaptic events (mIPSCs) [1] | effect on amplitude of mIPSCs when P/Q channels are already blocked [1] | effect on synaptic activity / frequency of mIPSCs after blockade of P/Q channels by ω-agatoxin [1] | frequency of spontaneous synaptic events [1] | amplitude of spontaneous synaptic currents [1] | reversal of Aβ globulomer-induced reduction of frequency of spontaneous synaptic events [1] |
| --- | --- | --- | --- | --- | --- | --- | --- |
| Aβ(1-42) globulomer: soluble, globular, non-covalent association of Aβ(1-42) peptides, apparent molecular weight 38/48 kDa, obtained as in Example 6b of WO2004/067561 | 1399.8±376.4 pA | no or little effect; also recorded: no effect | No effect | No additive effect; also recorded: no further effect | inhibits the frequency of spontaneous synaptic events | – | – |
| CC[C@H](CO)Nc1nc(NCc2ccccc2)c2ncn(C(C)C)c2n1 [roscovitine] | – | – | – | – | – | No effect | reversal |
